Data on two compounds can be found in US20230218606A1, “USE OF 4-AMINOQUINOLINE COMPOUND IN TREATMENT OF CORONAVIRUS INFECTION” (priority 2020, published 2023).

Like-named read-outs stand apart in the source and are kept apart here.

For data set [1], the system named is SARS-CoV-2. Put plainly: Example 3: co-localization of SARS-CoV-2 virus particles with early endosomes or endolysosomes (immunofluorescence). Conditions: 50 µM drug, veroE6 cells, MOI of 10, 90 min at 37° C. Type of data set: cell-based. The method, then: (at MOI of 10); • 3) the veroE6 cells were washed twice with PBS (purchased from Gibco, Catalog No. C10010500BT) to remove unbound virus particles, freshly pre-warmed MEM culture medium containing 2% FBS was added, and then the veroE6 cells were incubated at 37° C. for 90 min; • 4) the cells were fixed, and the immunofluorescence staining of cells was performed by using anti-virus NP protein antibody (red) (preserved by Wuhan Institute of Virology, Chinese Academy of Sciences) and anti-early endosomal protein EEA antibody (green) (purchased from Cell Signaling Technology, Catalog No. 48453) or anti-lysosomal protein LAMP antibody (green) (purchased from Cell Signaling Technology company, Catalog No. 3243); the nuclei were stained with Hoechst (blue) (purchased from Invitrogen company, Catalog No. H21492); • 5) quantitative analysis of co-localization of virus particles and endosomes of the cells in each group was performed, and co-localization rate was calculated.

Data set [2] deals with Vero-E6 cells. Conditions: Example 1, all test concentrations.
Method: (§1) The cytotoxicity test of drugs was carried out by using CCK-8 kit (Beyotime). […] The original medium in the 96-well plate was discarded, 100 µL of the drug-containing MEM medium was taken and added to the cells, and three replicate wells were set for each concentration. A vehicle control (adding DMSO and medium to cells in wells, without adding drug) and a blank control (adding DMSO and medium to the wells, without cells) were set up. After the drug was added, the cells were incubated at 37° C. for 48 hours. • ③ 20 µL of CCK-8 solution (Beyotime) was added to the well to be tested, mixed gently without generating bubbles, and incubated subsequently at 37° C. for 2 hours. OD450 was read on a microplate reader (purchased from Molecular Devices, model: SpectraMax M5), and the reading was substituted into the following formula to calculate cell viability: • [formula] • Wherein, A was the reading of the microplate reader.
In data set [3] the test system is SARS-CoV-2. Put plainly: microbe, parasite or virus in culture. The class given is cell-based.
In data set [4] the test system is Zika virus protease NS2B-NS3. The note with it: read-out: inhibitory constant Ki; cited from earlier work.
Data set [5] has as its system DENV-2. Conditions: cited from earlier work.
Data set [6] relates to ZIKV. Conditions: pregnant mice, 40 mg/kg/day intraperitoneally from first day after ZIKV infection, compared to PBS; cited from earlier work.
Data set [7] is described as follows: in vitro. Conditions: African green monkey.
Method: as §1

By Ki is commonly meant a measure of affinity in units of concentration, obtained from inhibition or displacement. As a reminder, the IC50 is the concentration that inhibits the measured activity by half.

In the case of `CCN(CC)CCCC(C)Nc1ccnc2cc(Cl)ccc12` (stereo not drawn) [chloroquine phosphate], in data set [1], the “co-localization rate of virus particles and early endosomes (EES)” value was 35.3%; the “co-localization rate of virus particles and endolysosomes (ELs)” value came to 2.4%. Further, the “toxic effect on cells (cell viability)” value in data set [2] is given as “no toxic effect on cells at all concentrations”. Also, in data set [3] (Example 1, at 50 µM, 16.67 µM and 5.56 µM), the “inhibition of replication of SARS-CoV-2 virus genome in the infected supernatant” value is recorded as “could effectively inhibit the replication”. Also, the EC50 in data set [3] (Severe acute respiratory syndrome coronavirus 2, Vero C1008, 48 h, read-out: half-maximal effective concentration (EC50)) was 1130 nM.
In the case of `CCN(CCO)CCCC(C)Nc1ccnc2cc(Cl)ccc12` (stereo not drawn) [hydroxychloroquine, 2-[[4-[(7-chloroquinolin-4-yl)amino]pentyl]ethylamino]-ethanol], the “co-localization rate of virus particles and early endosomes (EES)” value in data set [1] was determined as 29.2%. For the same compound, in data set [1], the “co-localization rate of virus particles and endolysosomes (ELs)” value was 0.03%. In addition, the Ki in data set [4] was 92.3 ± 11.9 µM. Besides, the “reduction of DENV-2 virus titer” value in data set [5] (A549 cell line, 50 to 80 µM) is recorded as 100 times. For the same compound, the half-inhibitory concentration (IC50) in data set [5] (A549 cells, read-out: IC50 for DENV-2 infected cells) is 10.1 ± 1.6 µM; in data set [5] (Hepa1-6 cells, read-out: IC50 for DENV-2 infected cells), 12.9 ± 4.2 µM; in data set [5] (J774A.1 macrophages, read-out: IC50, inhibition of DENV-2 infection of macrophages), 9.7 ± 1.3 µM; in data set [5] (WS-1 cells, read-out: IC50 for DENV-2 infected cells), 12.9 ± 1.9 µM. Moreover, in data set [6], the “level of ZIKV infection in placenta” value was “lower level of ZIKV infection”. The compound also returned a CC50 at 48 h in data set [7] greater than 250 µM.
